How the values were obtained:
Assay type in all cases: cell-based, human
[1] = tested on: chondrogenic differentiation of hMSCs; assay: qPCR of chondrogenic micromass pellets (Example 2); details: for SOX9 expression / COMP expression: day 3
Protocol: Total RNA was isolated from chondrogenic micromass pellets using TRIZOL reagent (Life Technologies, CA, USA) according to the manufacturer's protocol. Reverse transcription was carried out on 1 μg RNA using the SuperScript® VILO™ cDNA Synthesis Kit (Life Technologies) following the manufacturer's instructions, with the incubation at 42° C. being carried out for 2 h instead of 1 h. Each qPCR contained 40 ng cDNA, 1 μL TaqMan® primer-probe mix per gene, and 10 μL Taqman® Fast Universal PCR Master Mix (Life Technologies) in a final volume of 20 μL. Thermal cycling conditions were 95° C. for 20 s, followed by 45 cycles of 95° C. for 1 s and 60° C. for 20 s. Each qPCR was run in duplicate and gene expression was normalised to HPRT1 expression to obtain the ΔCt value. The average value of biological triplicates was taken. Chondrogenic micromass pellets cultured in media without GAG or TGF-β1 were used as controls (ΔΔCt). Relative expression levels for each primer set were expressed as fold changes by the 2-ΔΔCt method [Livak, K. J. and T. D. Schmittgen, Analysis of Relative Gene Expression Data Using Real-Time Quantitative PCR and the 2-ΔΔCT Method. Methods, 2001. 25(4): p. 402-408]. The following TaqMan® primer-probe assays (Life technologies) were used:
(§1) In order to assess the effects of HS16+ve on the chondrogenic differentiation of hMSCs in vitro, it was first necessary to establish the effects of TGF-β1 alone. Chondrogenic differentiation was carried out using a modified micromass culture system. [Zhang, L., et al., Chondrogenic differentiation of human mesenchymal stem cells: a comparison between micromass and pellet culture systems. Biotechnol Lett, 2010. 32(9): p. 1339-1346.]. Briefly, passage 4 hMSCs were harvested and resuspended in chemically defined chondrogenic media (PT-3003, Lonza, MD, USA) at 2×10^7 cells/mL. Droplets of 12.5 μL were then seeded into the middle of each well in a 24-well plate and left to adhere at 37° C. for 2 h, after which, 500 μL of chondrogenic media supplemented with either 1 or 10 ng/mL of TGF-β1 (100-210, PeproTech) alone or with either 5 or 10 μg/mL of heparin (Sigma-Aldrich), porcine mucosal HS (HSPM) (Celsus laboratories), HS16+ve or HS16-ve was added to each well. The cell droplets coalesced into spherical masses after 24 h. Media was changed every 3 days and the micromasses harvested on days 3, 7, 14 and 21.
Next, hMSCs were differentiated for 21 days in the presence of 1 ng/mL TGF-β1 alone (1 TGF-β1) or in combination with 10 μg/mL of GAG (heparin, HSPM, HS16+ve or HS16−ve) or with 10 ng/mL TGF-β1 (10 TGF-β1) as a positive control.

[2] = tested on: chondrogenic differentiation of hMSCs; assay: qPCR of day 3 chondrogenic micromass pellets (Example 1); details: day 3; 10 ng/ml TGF-β1 with 10 μg/ml heparin
Protocol: Chondrogenic differentiation was carried out using a modified micromass culture system as described by Zhang et al. (32). Briefly, passage 4 hMSCs were harvested and resuspended in chemically defined chondrogenic media (PT-3003, Lonza) at 2×10^7 cells/ml. Droplets of 12.5 μl were then seeded into the middle of each well in a 24-well plate and left to adhere at 37° C. for 2 h, after which, 500 μl of chondrogenic media supplemented with either 10 ng/ml of TGF-β1 (100-21C, PeproTech) alone (Media) or TGF-β1 with 10 μg/ml of heparin (Sigma-Aldrich) (Media+Hep) was added to each well. The cell droplets coalesced into spherical masses after 24 h and the micromasses harvested on day 3. Human MSCs were cultured in 6-well plates in basal media for 24 h at a density of 10,000 cells/cm^2. TGF-β1 treatments were then prepared at either 1 ng/ml or 5 ng/ml alone or in the presence of either 10 μg/ml or 40 μg/ml of full length heparin, or 1 ng/ml of TGF-β1 with 10 μg/ml size-fractionated or selectively desulfated heparin, HS^PM, HS16+ or HS16−, and incubated at room temperature for 10 min before being added to the cells. Latent TGF-β1 (LTGF-β1) treatments were similarly prepared at 3.3 ng/ml alone or with 10 μg/ml of the various GAGs described above. For inhibitor studies, the cells were pre-treated for 30 min with 10 μM SB431542 (Sigma-Aldrich) or DMSO before treatment with TGF-β1. The cells were then subjected to the various TGF-β1 treatments for 1, 6 or 24 h and lysed in 2× Laemmli buffer, before being resolved on a 4-12% SDS-PAGE gel. Samples were then immunoblotted with antibodies against SMAD2/3 (#3102, Cell Signaling), phosphorylated SMAD2 (pSMAD2, #3108, Cell Signaling), phosphorylated SMAD3 (pSMAD3, #9520, Cell Signaling) and actin (MAB1501R, Millipore). Densitometry was carried out using Quantity One software (version 4.6.6, Bio-Rad). Total RNA was isolated from chondrogenic micromass pellets using TRIZOL reagent (Invitrogen, Life Technologies) according to the manufacturer's protocol. Reverse transcription was carried out on 1 μg RNA using the SuperScript® VILO™ cDNA Synthesis Kit (Invitrogen, Life Technologies) following the manufacturer's instructions, with the incubation at 42° C. being carried out for 2 h instead of 1 h. Each qPCR contained 40 ng cDNA, 1 μl TaqMan® primer-probe mix per gene, and 10 μl Taqman® Fast Universal PCR Master Mix (Applied Biosystems, Life Technologies) in a final volume of 20 μl. Thermal cycling conditions were 95° C. for 20 s, followed by 45 cycles of 95° C. for 3 s and 60° C. for 30 s. Each qPCR was run in duplicate and gene expression was normalized to HPRT1 expression to obtain the ΔCt value. […] Relative expression levels for each primer set were expressed as fold changes by the 2^−ΔΔCt method (36). […]

[3] = tested on: chondrogenic differentiation of hMSCs; assay: Alcian blue staining of chondrogenic micromass pellets; details: 21 days; 1 ng/mL TGF-β1 with 10 μg/mL GAG
Protocol: as §1

[4] = 10 μg/mL heparin with 10 ng/mL TGF-β1

Question: Which “COMP expression increase relative to 1 ng/mL TGF-β1 alone” value ([1]; 21 days, 1 ng/mL TGF-β1 with 10 μg/mL GAG) does the source give for heparin here?
Answer: The value was ~2.5 fold.

Question: And the SOX9 expression ([1]; 5 μg/mL heparin, regardless of the amount of TGF-β1)?
Answer: Its SOX9 expression is “did not significantly alter”.

Question: And the SOX9 expression ([1]; 10 μg/mL heparin on its own)?
Answer: Its SOX9 expression is “did not affect SOX9 expression”.

Question: What about the SOX9 expression ([1]; 10 μg/mL heparin with 1 ng/mL TGF-β1) of the same substance?
Answer: Its SOX9 expression is “increase the expression of SOX9”.

Question: And the COMP expression [1, 4]?
Answer: The COMP expression was “reduced COMP expression levels”.

Question: And the SOX9 expression [1, 4]?
Answer: Its SOX9 expression is “unable to bring about any change in SOX9 expression”.

Question: And the COMP expression ([1]; 5 or 10 μg/mL heparin on their own)?
Answer: The COMP expression was “slightly reduce”.

Question: And the COMP expression ([1]; either dose of heparin with 10 ng/mL TGF-β1)?
Answer: The COMP expression was “unable to elicit a further increase in COMP expression”.

Question: And the COMP expression ([1]; heparin with 1 ng/mL TGF-β1)?
Answer: Its COMP expression is “increase COMP expression levels in a dose dependent manner”.

Question: What about the Aggrecan expression ([1]; day 21, 1 ng/mL TGF-β1 with 10 μg/mL GAG) of the same substance?
Answer: The Aggrecan expression was “similar”.

Question: And the “COMP mRNA transcripts relative to Media (TGF-β1 alone)” value [2]?
Answer: The value was ~5 fold.

Question: And the “SOX9 mRNA transcripts relative to Media (TGF-β1 alone)” value [2]?
Answer: Its value is ~5 fold.

Question: What about the “GAG deposition by Alcian blue staining relative to 1 ng/mL TGF-β1 alone” value [3] of the same substance?
Answer: Its value is “slight increase in GAG deposition”.
